The test system of series [1] is thermal C-fiber pain pathway. The experiment in a line: Hotplate test after intrathecal injection of isoflurane dissolved in saline (Study C). Particulars: 5 microliter isoflurane dissolved in saline. The format is in vivo, rat. How it is done: Isoflurane was dissolved into saline using the following method (also referred to as the “bubbling” method). Study C: A mock vaporizing device was created using a 500 ml modified Erlenmeyer flask (2 inlets and 1 catheter into the liquid phase). The flask was partially filled with 0.9% normal saline and a stoppered glass pipette was inserted into the bottom of the liquid phase for injection of isoflurane. A second egress pipette allowed egress of gas from the closed container. 2% isoflurane solution in oxygen at 2 L/min was injected through the pipette, saturating the 0.9% saline solution after approximately 10 minutes of injection. 5 mL was drawn from the saturated saline solution and administered to […] using the procedures outlined in Example I above. For study C, all animals were prepared as for experiments A and B. The inventors injected 4 animals with 5 microliter of dissolved isoflurane solution (as prepared in 0030) via intrathecal catheter. Note, control (baseline) latency to paw withdrawal is different in Study C due to a different intensity of heat lamp used. Each animal serves as its own control in study C. Study C Data is presented here: in seconds to paw withdrawal to heat source. Table and graphic format.

Series [2] concerns thermal C-fiber pain pathway. The experiment in a line: Hotplate test after intrathecal isoflurane dissolved in artificial cerebrospinal fluid (ACSF). It counts as in vivo, rat. Here is the method:
Pain sensitivity was measured after intrathecal administration of isoflurane in artificial cerebrospinal fluid (ACSF). Further, as detailed below, the isoflurane was first dissolved in ACSF and then sonicated before administration. The dose response relationship was then evaluated by generating a stimulus-response (SR) graph in order to determine relevant concentrations of isoflurane that may be administered intrathecally to achieve analgesia or anesthesia. The characterization of the pharmacological profile of intrathecal administration of isoflurane in ACSF was performed in this example using rats; further, as would be appreciated by one of skill in the art, analogous approaches may be used to determine the precise pharmacological profile in humans. Isoflurane dissolved in ACSF was prepared by the following method. […] The dose response relationship was then evaluated by generating a stimulus-response (SR) graph in order to standardize responses across animals and determine relevant concentrations of isoflurane that may be administered intrathecally to achieve analgesia or anesthesia. […] MPE is calculated as ((drug response time—baseline response time)/(cutoff time−baseline response time))*100. […]

Series [3] is described as follows: Observation of adverse effects and recovery after intrathecal injection. It counts as in vivo, rat. Particulars: intrathecal injection of 2 microliters, rats. How it is done:
These rats were then allowed time to recover from their intrathecal injection. There were no apparent adverse effects such as respiratory depression, cardiac, or neurological compromise. At 30 minutes after the injection, the rats were tested again, according to grouping:
This study also shed some light into the safety of intrathecally delivering active agent gases.

Series [4] relates to thermal C-fiber pain pathway. The experiment in a line: Hotplate test (thermal withdrawal latency) after direct intrathecal injection of volatile anesthetic. The following applies: smallest intrathecally delivered dose of 2 microliters.

Where “and” joins values, the source holds several entries; their conditions need not be identical. Identical values can stand only once.

For the molecule `FC(F)OC(Cl)C(F)(F)F` (stereo not shown) [isoflurane, 1-chloro-2,2,2-trifluoroethyl difluoromethyl ether], the “seconds to paw withdrawal to heat source, 5 MIN, mean” value in series [1] (5 min, mean of all readings (control mean 3.875)) stood at 14.82 s. Also, in series [1] (5 min, single readings per rat), the “seconds to paw withdrawal to heat source, 5 MIN” value is 14.2 seconds and 20 seconds (3×) and 16 seconds and 9.8 seconds and 11.8 seconds (2×) and 9.1 seconds and 11 seconds and 15 seconds and 19.5 seconds and 10.9 seconds and 12.6 seconds and 18.1 seconds and 17.3 seconds. For the same molecule, the “seconds to paw withdrawal to heat source, 10 MIN, mean” value in series [1] (10 min, mean of all readings) was determined as 9.181 s. Also, the “seconds to paw withdrawal to heat source, 10 MIN” value in series [1] (10 min, single readings per rat) was 12.2 seconds and 12 seconds (2×) and 9.1 seconds and 8.9 seconds and 8.8 seconds and 7.8 seconds and 10.2 seconds and 8.1 seconds and 5.4 seconds and 9 seconds (3×) and 6.8 seconds and 9.9 seconds and 8.7 seconds. Besides, the “seconds to paw withdrawal to heat source, 15 MIN, mean” value in series [1] (15 min, mean of all readings) amounted to 7.375 s. The “seconds to paw withdrawal to heat source, 15 MIN” value in series [1] (15 min, single readings per rat) was 6.1 s and 7.1 s and 4.8 s and 5.2 s and 7.9 s and 6.4 s and 6.9 s and 4.3 s and 7.6 s and 7.3 s and 8.8 s and 7 s and 10.4 s and 9.4 s and 5.4 s and 13.4 s. Besides, in series [1] (30 min, mean of all readings), the “seconds to paw withdrawal to heat source, 30 MIN, mean” value was 5.9375 s. Besides, the “seconds to paw withdrawal to heat source, 30 MIN” value in series [1] (30 min, single readings per rat) is 5.2 seconds (2×) and 6.1 seconds and 5.8 seconds and 6.5 seconds and 4.9 seconds (2×) and 4.3 seconds and 4.7 seconds and 3.8 seconds and 6.8 seconds and 7.2 seconds and 8.2 seconds and 6.9 seconds and 8.1 seconds and 6.4 seconds. Moreover, the “seconds to paw withdrawal to heat source, 60 MIN, mean” value in series [1] (60 min, mean of all readings) turned out to be 4.456 s. Moreover, the “seconds to paw withdrawal to heat source, 60 MIN” value in series [1] (60 min, single readings per rat) is 4.2 seconds (2×) and 3.5 seconds (3×) and 3.3 seconds and 3.8 seconds (3×) and 6.1 seconds and 5.8 seconds and 5.1 seconds and 4.9 seconds and 4.7 seconds and 7 seconds and 4.1 seconds. Further, the “maximal possible effect (MPE)” value in series [2] (10% v/v isoflurane in ACSF, 10 μl intrathecal (1.46 mg), 10 minutes after injection, cutoff 20 seconds) is reported as around 34%. Besides, the “analgesia (hind paw withdrawal threshold to radiant heat)” value in series [2] (isoflurane in ACSF 10% v/v, 10 μL intrathecal, 1.46 mg dose) is “resulted in analgesia”. Moreover, in series [3], the adverse effects entry is “None of the rats in the study experienced adverse effects”. In series [4], the “analgesic effect (thermal latency time)” value was “analgesic effect”.
Regarding `FCOC(C(F)(F)F)C(F)(F)F` [sevoflurane], the adverse effects entry in series [3] was “None of the rats in the study experienced adverse effects”. The “analgesic effect (thermal latency time)” value in series [4] was “analgesic effect”.
